The record followed here is patent US8232377B2, “Method for high-level secretory production of protein” (priority 2006, dated 2012).

Assay [1] relates to S. cerevisiae T2K01, T2K02, T2K03 and T2K04 strains. The assay is described as follows: Antibody productivity of transformed S. cerevisiae with PMT inhibitor added, sandwich ELISA. Format: cell-based, Saccharomyces cerevisiae. The conditions noted are these: 10 μM PMT inhibitor in YPAD medium, 30° C., 3 days (FIG. 8B). Here is the method: The S. cerevisiae T2K01, S. cerevisiae T2K02, S. cerevisiae T2K03, and S. cerevisiae T2K04 strains prepared in Example 14 were cultured using ST medium at 30° C. for 3 days. The culture solution was inoculated into YPAD medium to result in a final concentration of 5% therein, and culture was conducted at 30° C. for 3 days. A culture supernatant was prepared from the culture solution, and the resultant was designated as a sample containing antibodies secreted and produced by yeast. The secreted and produced antibodies were subjected to quantitative assay via sandwich ELISA. TRAIL receptor proteins that were antigens of the anti-TRAIL receptor antibodies were adsorbed on a 96-well plate, a yeast sample was added, and detection was carried out using a peroxidase-labeled human IgG specific Fc antibody (Peroxidase-labeled affinity purified antibody to human IgG (Fc) (KPL)) and the ABTS peroxidase substrate (KPL). Antibodies produced in animal cells (NS0) were used as standard samples.
The S. cerevisiae T2K01, S. cerevisiae T2K02, S. cerevisiae T2K03, and S. cerevisiae T2K04 strains prepared in Example 14 were cultured using ST medium at 30° C. for 3 days. […]

Assay [2] relates to O. minuta YY3P4omH strain. Nature of the assay: Antibody production by PMT4-inactivated, HAC1-introduced O. minuta using PMT inhibitor (1c), TR-FRET quantification. Type of assay: cell-based, Ogataea minuta. The conditions noted are these: stock solution 10 mM; 27° C., 3 days (FIG. 18). The protocol:
(§1) 20 mM Tris-HCl buffer (pH 7.2) comprising 12 μl of 0.97 μg/ml LANCE Eu-W1024 labeled anti-human IgG (PerkinElmer), 8.3 ug/ml of biotin-conjugated mouse anti-human IgG (BD Bioscience), 16.7 ug/ml Surelight APC streptavidin (PerkinElmer), and 10% of Block Ace (Dainippon Pharmaceutical) was applied to a 96-well half area plate (Corning), and 2 μl of a sample solution prepared by adequately diluting the culture solution prepared in (2) above with 20 mM Tris-HCl buffer (pH 7.2) containing 10% of Block Ace was introduced therein, followed by agitation. The sample solution was subjected to the reaction at room temperature in the dark for 1 hour, and fluorescence was then assayed using EnVision (PerkinElmer). The amount of aggregate antibodies produced was determined based on the value at 665 nm/615 nm. Antibodies produced in animal cells (CHO) were used as standard samples. […]
(§2) A platinum loopful of antibody-producing strains with an insertionally inactivated PMT gene and with the HAC1 gene introduced therein prepared in Example 25 (1) was inoculated into 5 ml of B2YP4G medium, cultured at 27° C. for 1 day, and diluted with B2YP4G medium to adjust OD600 to 10. […] Culture was conducted at 27° C. for an additional 3 days, OD600 was measured every 24 hours, and PMT inhibitors (1c) were added in amounts of 0.00032 μM, 0.0016 μM, 0.008 μM, and 0.04 μM, respectively, as the OD600 value increased by 1. […]

Assay [3] relates to O. minuta YY3P2omH strain. The assay is described as follows: Antibody production by PMT2-inactivated, HAC1-introduced O. minuta using PMT inhibitor (1c), TR-FRET quantification. Format: cell-based, Ogataea minuta. To be noted: stock solution 2.5 mM; 27° C., 3 days (FIG. 18). The protocol:
as §1, §2

Assay [4] has as its system O. minuta AK3RH and O. minuta AK3AHy. Nature of the assay: Antibody production by transformed O. minuta with PMT inhibitor added, Western analysis of culture supernatant. Format: cell-based, Ogataea minuta. To be noted: Western analysis (FIG. 6). Here is the method:
O. minuta AK3RH and O. minuta AK3AHy were cultured in BYPG medium (1% yeast extract (Difco), 2% polypeptone (Difco), 0.5% glycerol, and 0.1M phosphate buffer (pH 6.0)) for 2 days, and these strain were cultured in BYPM media [1% yeast extract (Difco), 2% polypeptone (Difco), 1.5% methanol, and 0.1M phosphate buffer (pH 6.0)] to which 0 μM, 1 μM, 5 μM, 10 μM, 20 μM, and 50 μM PMT inhibitors (the rhodanine-3-acetic acid derivative: 5-[[3,4-(1-phenylmethoxy)phenyl]methylene]-4-oxo-2-thioxo-3-thiazolidineacetic acid (compound (1c) described in Bioorganic & Medicinal Chemistry Letters, Vol. 14, p. 3975, 2004)) had been added at 28° C. for 2 days. A culture supernatant was prepared from the culture solution and subjected to SDS-PAGE. Thereafter, the separated protein was blotted on a PVDF membrane, and Western analysis was carried out using a labeled anti-human antibody (anti-human Fc antibody). […] The adequate concentration of the PMT inhibitor to be added was 5 μM. In such a case, the amount of antibody secretion and the percentage of aggregate formation were increased.

The subject of assay [5] is O. minuta AA2omH, AA2 ppH, AA2scH and AA2Hy strains. Nature of the assay: Antibody production by O. minuta strains with HAC1 gene introduced using PMT inhibitor (1c), TR-FRET quantification. To be noted: 2 μM, plus 0.04 μM as OD600 increased by 1; 27° C., 3 days; HAC1 strains compared with control AA2Hy strain (FIG. 11). Type of assay: cell-based, Ogataea minuta. The protocol: as §1
A platinum loopful of the O. minuta AA2omH strain, the O. minuta AA2 ppH strain, the O. minuta AA2scH strain, and the O. minuta AA2Hy strain was inoculated into 5 ml of B2YP4G medium, cultured at 27° C. for 1 day, and then diluted with B2YP4G medium to adjust OD600 at 10. […] A culture supernatant was prepared from the culture solution, and the amount of antibody production was measured by the method described in Example 21 (3).
(In general: In TR-FRET formats the signal depends on donor and acceptor labels being close together.)

A further assay relates to O. minuta YY1 strains. Nature of the assay: Evaluation of PMT inhibitor (5a): antibody production by O. minuta YY1, Western analysis and TR-FRET quantification. Type of assay: cell-based, Ogataea minuta. The conditions noted are these: 1 μm, plus 0.02 μM as OD600 increased by 1, 27° C. Here is the method:
20 mM Tris-HCl buffer (pH 7.2) comprising 12 μl of 0.97 μg/ml LANCE Eu-W1024 labeled anti-human IgG (PerkinElmer), 8.3 ug/ml of biotin-conjugated mouse anti-human IgG (BD Bioscience), 16.7 ug/ml Surelight APC streptavidin (PerkinElmer), and 10% of Block Ace (Dainippon Pharmaceutical) was applied to a 96-well half area plate (Corning), and 2 μl of a sample solution prepared by adequately diluting the culture solution prepared in (2) above with 20 mM Tris-HCl buffer (pH 7.2) containing 10% of Block Ace was introduced therein, followed by agitation. The sample solution was subjected to the reaction at room temperature in the dark for 1 hour, and fluorescence was then assayed using EnVision (PerkinElmer). The amount of aggregate antibodies produced was determined based on the value at 665 nm/615 nm. Antibodies produced in animal cells (CHO) were used as standard samples. […] However, similar effects of production could be expected even via introduction of the HAC1 gene derived from a species different from a host.
A platinum loopful of the O. minuta YY1 strains into which antibody genes had been introduced was inoculated into 5 ml of B2YP4G medium, cultured at 27° C. for 1 day, and diluted with B2YP4G medium to adjust OD600 at 10. […]

Regarding “5-[[3,4-(1-phenylmethoxy)phenyl]methylene]-4-oxo-2-thioxo-3-thiazolidineacetic acid [PMT inhibitor (1c)]”, in assay [1], the “synergistic effects of coexpression of the activated HAC1 gene and the RRBP1 gene on antibody production” value was “further enhanced”. For the same compound, the “PMT inhibitor amount added as the OD600 value increased by 1 giving the highest antibody productivity” value in assay [2] is “approximately 0.04 μM”. Besides, in assay [3], the “PMT inhibitor amount added as the OD600 value increased by 1 giving the highest antibody productivity” value was “approximately 0.008 μM”. For the same compound, the “adequate concentration of the PMT inhibitor to be added” value in assay [4] (0, 1, 5, 10, 20 and 50 μM tested in BYPM medium, 28° C., 2 days) was determined as 5 µM. For the same compound, in assay [4] (PMT inhibitor at 5 μM), the “amount of antibody secretion” value is reported as “increased” and the “percentage of aggregate formation” value is given as “increased”. In assay [5], the “effects of accelerating antibody secretion” value is reported as “more significant effects of accelerating antibody secretion”.
For the compound `CC(Oc1cc(/C=C2\SC(=S)N(CC(=O)O)C2=O)ccc1OCCc1ccccc1)c1ccccc1` (stereo not drawn) [PMT inhibitor (5a), {(5Z)-4-oxo-5-[3-(1-phenylethoxy)-4-(2-phenylethoxy)benzylidene]-2-thioxo-1,3-thiazolidin-3-yl}acetic acid], in the assay with O. minuta YY1 strains (3 days), the “effects compared with PMT inhibitor (1c)” value is reported as “effects equivalent to those of the PMT inhibitor (1c)”. For the same compound, in the assay on O. minuta YY1 strains (3 days (FIG. 19, FIG. 20)), the “productivity of antibody aggregates” value is given as “tend to increase”.
